Source: patent US11839210B1, “Plant growth promoter with strigolactones regulation activities” (King Abdullah University of Science and Technology, priority 2017, dated 2023)

Tests used:
MAX1-Os900 = assay: qRT-PCR of MAX1-Os900 gene expression in rice roots after zaxinone treatment; format: in vivo, rice (Oryza sativa Nipponbare); conditions: −Pi, 6 h
Description: For the analysis of SL transcript levels in the zas mutant, one week-old seedlings were grown hydroponically in half-strength modified Hoagland nutrient solution with K2HPO4·2H2O (+Pi) and without K2HPO4·2H2O (−Pi) for 7 days. Seedlings were further treated with zaxinone for 6 h and tissues were collected.
Total RNA was extracted from the roots and shoots using a Qiagen Plant RNeasy Kit according to the manufacturer's instruction. cDNA was synthesized from 1 μg of total RNA using iScript cDNA Synthesis Kit (BIO-RAD Laboratories, Inc, 2000 Alfred Nobel Drive, Hercules, CA, Cat. No #170-8890) according to instructions in the user manual. For mycorrhizal samples, single-strand cDNA was synthesized from 1 μg of total RNA using Super-Script II (Invitrogen) according to instructions in the user manual. Primers used for real-time quantitative RT-PCR (qRT-PCR) analysis are listed below in Table 3. qRT-PCR was performed using SYBR Green Master Mix (Applied Biosystems; www.lifetechnologies.com) in a StepOnePlus (Life Technologies, Carlsbad, CA, USA). For mycorrhizal samples, qRT-PCR was performed using a Rotor-Gene Q 5plex HRM Platform (Qiagen). The 2-ΔCt method was used to calculate the relative gene expression levels and rice Ubiquitin (OsUBQ or OsRubQ1) gene was used as the internal control to normalize target gene expression.
14-day-old rice seedlings were transferred to new hydroponic pots containing fresh media with or without chemicals for 6 hours. SL biosynthetic (D27, D10, D17 and MAX1-Os900) gene expression were determined under −Pi conditions (phosphate deficient) with zaxinone (2.5 and 5 μM) treatment of both Nipponbare wild-type (WT) rice roots and zas mutant rice roots. The expression levels (1301) were detected by quantitative RT-PCR. Ubiquitin was used as a reference gene. Mock treatment (control) treatment consisted of 0.1% acetone. Bars (1302) show comparisons between the treatments and represent mean±SD (n=3). Decrease in SLs levels in the plants treated with zaxinone ranged from approximately 40% to 70%.

[1] = tested on: wild-type and zas mutant rice plants; assay: Rescue of zas mutant phenotype, soil-grown rice in rhizotron root analysis system; format: in vivo, Oryza sativa Nipponbare; conditions: 10 μM zaxinone
Description: Three days-old seedlings were grown in soil in Hoagland nutrient solution containing K2HPO4·2H2O (+Pi) with 10 μM zaxinone treatment. The solution was changed every other day for 2 weeks, adding the chemical at each renewal. Plants grown without zaxinone served as the controls and phenotypic data were recorded. To prevent zaxinone degradation from light exposure, 1 μl/ml emulsifier was added into the Hoagland nutrient solution.

4-deoxyorobanchol (4-DO) = assay: LC-MS/MS quantification of 4-deoxyorobanchol in rice roots and root exudates; format: in vivo; conditions: phosphate-starved, 6 h
Description: For the analysis of SLs, one week-old seedlings were further transferred into 50 ml falcon tube (three seedlings per tube) containing Hoagland nutrient solution with K2HPO4·2H2O (+Pi) and grown in the growth cabinet for one week. The rice seedlings were then subjected to phosphate deficiency for another one week period. On the day of root exudates collection, rice seedlings were first treated with 5 μM zaxinone for 6 h and then root exudates and root tissues were collected from each tube for LC-MS/MS analysis and Striga bioassays.
For the quantification of 4-deoxyorobanchol in rice root exudates, 50 ml of root exudate spiked with 0.672 ng of D6-5-deoxystrigol, was brought on a 500 mg/3 ml fast SPE C18 column preconditioned with 6 ml of methanol and 6 ml of water. After washing with 6 ml of water, strigolactones were eluted in 5 ml of acetone. The 4-deoxyorobanchol fraction (acetone-water solution) was concentrated to SLs aqueous solution (˜1 ml), followed by extraction with 1 ml of ethyl acetate. Then 750 μl of 4-deoxyorobanchol enriched organic phase was transferred to a 1.5 ml tube and evaporated to dryness under vacuum. The residue was dissolved in 100 μl of acetonitrile:water (25:75, v:v) and filtered through a 0.22 μm filter for LC-MS/MS analysis.
For the quantification of 4-deoxyorobanchol in rice root, plant tissue material was lyophilized and ground. 30 mg root tissue spiked with 0.672 ng of D6-5-deoxystrigol was extracted with 2 ml of ethyl acetate in an ultrasound bath (Branson 3510 ultrasonic bath) for 15 minutes, followed by centrifugation for 8 minutes at 3800 rpm at 4° C. The supernatant was collected and the pellet was re-extracted with 2 ml of ethyl acetate. The two supernatants were then combined and dried under vacuum. The residue was dissolved in 100 μl of ethyl acetate and 2 ml of hexane. The resulting extract solution was loaded on a Silica gel SPE column (500 mg/3 ml) preconditioned with 3 ml of ethyl acetate and 3 ml of Hexane. After washing with 3 ml of Hexane, 4-deoxyorobanchol was eluted in 3 ml of ethyl acetate and evaporated to dryness under vacuum. The residue was re-dissolved in 200 μl of acetonitrile:water (25:75, v:v) and filtered through a 0.22 μm filter for LC-MS/MS analysis.
4-Deoxyorobanchol was analyzed by using HPLC-Q-Trap-MS/MS with MRM mode. Chromatographic separation was achieved on an Agilent 1200 HPLC system with an Acquity UPLC BEH C18 column (50×2.1 mm; 1.7 μm; Waters Corp.). Mobile phases consisted of water:acetonitrile (95:5, v:v, A) and acetonitrile (B), both containing 0.1% formic acid. […]
SL, 4-deoxyorobanchol (4-DO), was quantified in wild-type and zas mutant roots (FIG. 18A) and root exudates (FIG. 18B) without added zaxinone and in response to zaxinone (5 μM) under phosphate starvation. […]

With `CC(=O)/C=C/C=C(C)/C=C/C1=C(C)C[C@@H](O)CC1(C)C` [zaxinone, 3-OH-β-apo-13-carotenone] the “decrease of MAX1-Os900 relative expression vs mock” value (MAX1-Os900; WT rice roots, 2.5 μM zaxinone) was “approximately 75%”, the MAX1-Os900 relative expression (MAX1-Os900; WT rice roots, 2.5 μM zaxinone, WT mock approx. 1.0) was “approximately 0.25” and the “decrease of MAX1-Os900 relative expression vs mock” value (MAX1-Os900; WT rice roots, 5.0 μM zaxinone) was roughly 60%. For the same compound, the MAX1-Os900 relative expression (MAX1-Os900; WT rice roots, 5.0 μM zaxinone, WT mock approx. 1.0) was “approximately 0.4”, the “decrease of MAX1-Os900 relative expression vs mock” value (MAX1-Os900; zas mutant rice roots, 2.5 μM zaxinone) was “approximately 43%” and the MAX1-Os900 relative expression (MAX1-Os900; zas mutant rice roots, 2.5 μM zaxinone, zas mock approx. 2.1) was “approximately 1.2”. The “decrease of MAX1-Os900 relative expression vs mock” value (MAX1-Os900; zas mutant rice roots, 5.0 μM zaxinone) was roughly 57%, the MAX1-Os900 relative expression (MAX1-Os900; zas mutant rice roots, 5.0 μM zaxinone, zas mock approx. 2.1) was “approximately 0.9” and the “shoots and roots vs untreated control seedlings (visual)” value ([1]; wild-type seedlings) was “some improvement”. For the same compound, the “shoots and roots vs untreated control seedlings (visual)” value ([1]; zas mutant seedlings) was “substantial improvement”, the “increase of shoot length over untreated seedlings” value ([1]; zas mutant) was “about 10 cm” and the “shoot biomass vs untreated” value ([1]; zas mutant) was “doubled”. The root surface area ([1]; zas mutant, untreated 15-20 cm^2) was 25-50 cm^2, the “SL content in roots and root exudates” value (4-deoxyorobanchol (4-DO); Shiokari d3 mutant, 5 μM) was “lowered” and the “SL content in roots and root exudates” value (4-deoxyorobanchol (4-DO); wild-type seedlings, 5 μM zaxinone) was “Reduction of SL content”. For the same compound, the “SL (4-deoxyorobanchol) content in roots after zaxinone” value (4-deoxyorobanchol (4-DO); zas mutant seedlings, 5 μM zaxinone, untreated 13) was 5 pgmg^−1dry-root-weight and the “SL (4-deoxyorobanchol) content in root exudates after zaxinone” value (4-deoxyorobanchol (4-DO); zas mutant seedlings, 5 μM zaxinone, untreated 35) was 5 pgmg^−1 dry-root-weight.
